In patent US20200170932A1, “EXTENDED RELEASE L-TRI-IODOTHYRONINE SAFELY NORMALIZES KEY ELEMENTS OF MOLECULAR PATHOLOGY IN ALZHEIMERS DISEASE” (priority 2018, published 2020):

Key:
[1] = compounding pharmacies' technology, personal communication; cited from earlier work
rat model of AD = rat model of AD (Sarkar); cited from earlier work
patients with AD = assay: Administering T3 to patients with AD (clinical observation); type: in vivo, human
Text: The noradrenerigic neurotransmitter system is dependent on normal thyroid hormone activity for normal function. A deficient amount of thyroid hormone activity leads to downregulation of the noradrenergic system. This leads to attenuated postsynaptic effects and a failure to prosecute the noradrenergic mandate. In AD this phenomenon accounts for various signs and symptoms. There are aberrations of the diurnal rhythm including insomnia and daytime somnolence. Depression and/or anxiety may occur. Drooping of the upper eyelid (ptosis) is frequently seen in AD. The levator palpebrae superioris muscle, the elevator of the upper eyelid, is partially innervated by the sympathetic nervous system.

[2] = following ingestion; cited from earlier work

N[C@@H](Cc1cc(I)c(Oc2ccc(O)c(I)c2)c(I)c1)C(=O)O [T3, 3,5,3′-triiodothyronine]
time of release to completion [1]: 2 to 8 h
histology, memory and electrophysiological activity in the cholinergic system (rat model of AD): improved histology, memory and electrophysiological activity in the cholinergic system
countenance and alertness (ptosis, adrenergic dysregulation) (patients with AD): rapid, within days, and dramatic wide-eyed countenance and an appearance of increased alertness
time to peak levels [2]: one to two
